From US11248010B2, “Compounds, compositions, and methods for modulating CFTR” (Proteostasis Therapeutics, Inc., priority 2016, dated 2022)

Molecular target: T1, ΔF508-CFTR (Homo sapiens, UniProt P13569, DEL508-508)
T1 construct: primary lung epithelial cells (hBEs) homozygous for the Cystic Fibrosis-causing ΔF508 mutation are differentiated; endogenous in cells; host or cells: primary human bronchial epithelial cells (hBEs) homozygous for ΔF508, differentiated at an air-liquid interface
Test: Ussing measurements (CFTR activity assay)
Type: cell-based
Details: compound at 1 uM; activity relative to a corrector (VX-809 (3 uM)); primary lung epithelial cells (hBEs) homozygous for ΔF508; CFTRinh-172-inhibitable short-circuit current
Description: As discussed above, Ussing measurements are used to measure CFTR activity. In this method, primary lung epithelial cells (hBEs) homozygous for the Cystic Fibrosis-causing ΔF508 mutation are differentiated for a minimum of 4 weeks in an air-liquid interface on SnapWell filter plates prior to the Ussing measurements. Cells are apically mucus-washed for 30 minutes prior to treatment with compounds. The basolateral media is removed and replaced with media containing the compound of interest diluted to its final concentration from DMSO stocks. Treated cells are incubated at 37° C. and 5% CO2 for 24 hours. At the end of the treatment period, the cells on filters are transferred to the Ussing chamber and equilibrated for 30 minutes. The short-circuit current is measured in voltage clamp-mode (Vhold=0 mV), and the entire assay is conducted at a temperature of 36° C.-36.5° C. Once the voltages are stabilized, the chambers are clamped, and data is recorded by pulse readings every 5 seconds. Following baseline current stabilization, the following additions can be applied and the changes in current and resistance of the cells can be monitored:
1. Benzamil to the apical chamber to inhibit ENaC sodium channel.
2. Forskolin to both chambers to activate ΔF508-CFTR by phosphorylation.
3. VX-770 to the apical chamber to potentiate ΔF508-CFTR channel opening.
4. CFTRinh-172 to the apical chamber to inhibit ΔF508-CFTR Cl— conductance.
The inhibitable current (that current that is blocked by CFTRinh-172) is measured as the specific activity of the ΔF508-CFTR channel, and increases in response to compound in this activity over that observed in vehicle-treated samples are identified as the correction of ΔF508-CFTR function imparted by the compound tested.
(+ indicates activity <200% of a corrector (VX-809 (3 uM)) with compound at 1 uM; ++ indicates activity >200% of a corrector (VX-809 (3 uM)) with compound at 1 uM.

T1 sequence (P13569 with tags, fused parts or gaps DEL508-508): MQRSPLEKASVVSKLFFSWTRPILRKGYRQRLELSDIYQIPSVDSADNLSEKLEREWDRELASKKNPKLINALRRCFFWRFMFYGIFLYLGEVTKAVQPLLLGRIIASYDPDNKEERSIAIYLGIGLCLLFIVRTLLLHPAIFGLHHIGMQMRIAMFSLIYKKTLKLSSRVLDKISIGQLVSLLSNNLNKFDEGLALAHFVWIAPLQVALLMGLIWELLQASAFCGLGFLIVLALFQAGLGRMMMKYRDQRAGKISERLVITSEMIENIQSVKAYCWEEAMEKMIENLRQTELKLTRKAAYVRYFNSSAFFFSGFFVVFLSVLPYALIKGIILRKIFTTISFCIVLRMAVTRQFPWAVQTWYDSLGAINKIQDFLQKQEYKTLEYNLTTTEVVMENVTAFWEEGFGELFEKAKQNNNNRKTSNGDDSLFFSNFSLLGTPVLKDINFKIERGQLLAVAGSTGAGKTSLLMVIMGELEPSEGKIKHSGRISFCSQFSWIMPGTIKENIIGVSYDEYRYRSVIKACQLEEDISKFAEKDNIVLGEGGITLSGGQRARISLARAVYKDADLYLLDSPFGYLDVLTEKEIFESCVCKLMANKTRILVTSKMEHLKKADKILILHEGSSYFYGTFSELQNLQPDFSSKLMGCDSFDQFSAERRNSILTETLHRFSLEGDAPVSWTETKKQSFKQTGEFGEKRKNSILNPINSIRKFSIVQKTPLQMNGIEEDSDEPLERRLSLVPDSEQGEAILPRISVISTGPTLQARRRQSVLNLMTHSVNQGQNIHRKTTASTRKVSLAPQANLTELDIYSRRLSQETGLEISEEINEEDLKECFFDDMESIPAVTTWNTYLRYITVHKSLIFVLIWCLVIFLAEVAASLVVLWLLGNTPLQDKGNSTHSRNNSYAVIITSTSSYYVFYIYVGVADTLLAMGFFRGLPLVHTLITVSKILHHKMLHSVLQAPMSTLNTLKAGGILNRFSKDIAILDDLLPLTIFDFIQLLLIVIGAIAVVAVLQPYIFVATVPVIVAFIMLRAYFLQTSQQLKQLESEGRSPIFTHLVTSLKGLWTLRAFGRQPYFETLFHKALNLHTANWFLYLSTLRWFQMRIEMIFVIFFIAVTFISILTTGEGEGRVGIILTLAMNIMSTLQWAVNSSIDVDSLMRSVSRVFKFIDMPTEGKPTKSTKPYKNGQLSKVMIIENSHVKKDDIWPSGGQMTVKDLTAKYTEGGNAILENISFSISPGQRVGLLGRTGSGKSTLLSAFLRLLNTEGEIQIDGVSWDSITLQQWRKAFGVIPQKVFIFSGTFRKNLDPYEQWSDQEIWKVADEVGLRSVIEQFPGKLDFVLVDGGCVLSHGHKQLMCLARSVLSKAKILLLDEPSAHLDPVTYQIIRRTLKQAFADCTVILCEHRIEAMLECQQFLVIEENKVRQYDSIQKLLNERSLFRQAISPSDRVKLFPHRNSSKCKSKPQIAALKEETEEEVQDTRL

| SMILES | Activity |
| --- | --- |
| CC(C)(C)c1cc([Si](C)(C)C)c(O)cc1NC(=O)c1c[nH]c2ccccc2c1=O [Compound 1, N-[2-tert-Butyl-5-hydroxy-4-(trimethylsilyl)phenyl]-4-oxo-1,4-dihydroquinoline-3-carboxamide] | ++ (activity >200% of a corrector (VX-809 (3 uM)) with compound at 1 uM) |
| CC[Si](C)(C)c1cc(C(C)(C)C)c(NC(=O)c2c[nH]c3ccccc3c2=O)cc1O [Compound 2, N-[2-tert-Butyl-4-(ethyldimethylsilyl)-5-hydroxyphenyl]-4-oxo-1,4-dihydroquinoline-3-carboxamide] | ++ (activity >200% of a corrector (VX-809 (3 uM)) with compound at 1 uM) |
| CC[Si](C)(CC)c1cc(C(C)(C)C)c(NC(=O)c2c[nH]c3ccccc3c2=O)cc1O [Compound 3, N-[2-tert-Butyl-4-[diethyl(methyl)silyl]-5-hydroxyphenyl]-4-oxo-1,4-dihydroquinoline-3-carboxamide] | ++ (activity >200% of a corrector (VX-809 (3 uM)) with compound at 1 uM) |
| CC[Si](CC)(CC)c1cc(C(C)(C)C)c(NC(=O)c2c[nH]c3ccccc3c2=O)cc1O [Compound 4, N-(2-(tert-Butyl)-5-hydroxy-4-(triethylsilyl)phenyl)-4-oxo-1,4-dihydroquinoline-3-carboxamide] | + (activity <200% of a corrector (VX-809 (3 uM)) with compound at 1 uM) |
| CC(C)(C)c1cc([Si](C)(C)C(C)(C)C)c(O)cc1NC(=O)c1c[nH]c2ccccc2c1=O [Compound 5, N-(2-tert-Butyl-4-(tert-butyldimethylsilyl)-5-hydroxyphenyl)-4-oxo-1,4-dihydroquinoline-3-carboxamide] | ++ (activity >200% of a corrector (VX-809 (3 uM)) with compound at 1 uM) |
| CC(C)[Si](C)(C)c1cc(C(C)(C)C)c(NC(=O)c2c[nH]c3ccccc3c2=O)cc1O [Compound 6, N-[2-tert-Butyl-4-[dimethyl(propan-2-yl)silyl]-5-hydroxyphenyl]-4-oxo-1,4-dihydroquinoline-3-carboxamide] | ++ (activity >200% of a corrector (VX-809 (3 uM)) with compound at 1 uM) |
| CC(C)(C)c1cc([Si](C)(C)c2ccccc2)c(O)cc1NC(=O)c1c[nH]c2ccccc2c1=O [Compound 7, N-(2-(tert-Butyl)-4-(dimethyl(phenyl)silyl)-5-hydroxyphenyl)-4-oxo-1,4-dihydroquinoline-3-carboxamide] | ++ (activity >200% of a corrector (VX-809 (3 uM)) with compound at 1 uM) |
| CC(C)(C)c1cc([Si](C)(C)C)c(NC(=O)c2c[nH]c3ccccc3c2=O)cc1O [Compound 8, N-[4-tert-Butyl-5-hydroxy-2-(trimethylsilyl)phenyl]-4-oxo-1,4-dihydroquinoline-3-carboxamide] | ++ (activity >200% of a corrector (VX-809 (3 uM)) with compound at 1 uM) |
| CC(C)(C)c1cc([Si](C)(C)C(C)(C)C)c(NC(=O)c2c[nH]c3ccccc3c2=O)cc1O [Compound 10, N-(4-(tert-Butyl)-2-(tert-butyldimethylsilyl)-5-hydroxyphenyl)-4-oxo-1,4-dihydroquinoline-3-carboxamide] | ++ (activity >200% of a corrector (VX-809 (3 uM)) with compound at 1 uM) |
| C[Si](C)(C)c1cc([Si](C)(C)C)c(NC(=O)c2c[nH]c3ccccc3c2=O)cc1O [Compound 11, N-(5-Hydroxy-2,4-bis(trimethylsilyl)phenyl)-4-oxo-1,4-dihydroquinoline-3-carboxamide] | ++ (activity >200% of a corrector (VX-809 (3 uM)) with compound at 1 uM) |
| [2H]C([2H])([2H])[Si](c1cc(C(C)(C)C)c(NC(=O)c2c[nH]c3ccccc3c2=O)cc1O)(C([2H])([2H])[2H])C([2H])([2H])[2H] [Compound 12, N-(2-(tert-Butyl)-5-hydroxy-4-(tris(methyl-d3)silyl)phenyl)-4-oxo-1,4-dihydroquinoline-3-carboxamide] | ++ (activity >200% of a corrector (VX-809 (3 uM)) with compound at 1 uM) |
| [2H]C([2H])([2H])[Si](c1cc([Si](C([2H])([2H])[2H])(C([2H])([2H])[2H])C([2H])([2H])[2H])c(NC(=O)c2c[nH]c3ccccc3c2=O)cc1O)(C([2H])([2H])[2H])C([2H])([2H])[2H] [Compound 13, N-(5-Hydroxy-2,4-bis(tris(methyl-d3)silyl)phenyl)-4-oxo-1,4-dihydroquinoline-3-carboxamide] | ++ (activity >200% of a corrector (VX-809 (3 uM)) with compound at 1 uM) |
| C[Si](C)(C)c1ccc(NC(=O)c2c[nH]c3ccccc3c2=O)cc1O [Compound 17, N-(3-Hydroxy-4-(trimethylsilyl)phenyl)-4-oxo-1,4-dihydroquinoline-3-carboxamide] | ++ (activity >200% of a corrector (VX-809 (3 uM)) with compound at 1 uM) |
| C[Si](C)(C)c1cc(F)c(NC(=O)c2c[nH]c3ccccc3c2=O)cc1O [Compound 18, N-(2-Fluoro-5-hydroxy-4-(trimethylsilyl)phenyl)-4-oxo-1,4-dihydroquinoline-3-carboxamide] | ++ (activity >200% of a corrector (VX-809 (3 uM)) with compound at 1 uM) |
| C[Si](C)(C)c1cc(C(F)(F)F)c(NC(=O)c2c[nH]c3ccccc3c2=O)cc1O [Compound 19, N-(5-Hydroxy-2-(trifluoromethyl)-4-(trimethylsilyl)phenyl)-4-oxo-1,4-dihydroquinoline-3-carboxamide] | ++ (activity >200% of a corrector (VX-809 (3 uM)) with compound at 1 uM) |
